Source: ChEMBL document CHEMBL1909046, “DrugMatrix in vitro pharmacology data”
Where a SMILES comes first, the peptide text is derived from it. Bridges are numbered along the chain shown (N, C = ends). [ ]: non-standard residue; d: D form. The star is where a group is joined. Ileψ(thiazoline)Cys = CC[C@H](C)[C@H](N)C1=N[C@H](C(=O)*)CS1; dOrn = NCCC[C@@H](N)C(=O)O

Assays:
[1] = DRUGMATRIX: Potassium Channel [KATP] radioligand binding (ligand: [3H] Glyburide); format: cell membranes, Membrane; conditions: hit-t15; Not Active = under 50% inhibition at 10 µM
[2] = target: Voltage-gated inwardly rectifying potassium channel KCNH2 (Homo sapiens, UniProt Q12809); conditions: hek293; also: in other assays of this panel Not Active means under 50% inhibition at 10 µM
Sequence of Voltage-gated inwardly rectifying potassium channel KCNH2 (Q12809 whole entry): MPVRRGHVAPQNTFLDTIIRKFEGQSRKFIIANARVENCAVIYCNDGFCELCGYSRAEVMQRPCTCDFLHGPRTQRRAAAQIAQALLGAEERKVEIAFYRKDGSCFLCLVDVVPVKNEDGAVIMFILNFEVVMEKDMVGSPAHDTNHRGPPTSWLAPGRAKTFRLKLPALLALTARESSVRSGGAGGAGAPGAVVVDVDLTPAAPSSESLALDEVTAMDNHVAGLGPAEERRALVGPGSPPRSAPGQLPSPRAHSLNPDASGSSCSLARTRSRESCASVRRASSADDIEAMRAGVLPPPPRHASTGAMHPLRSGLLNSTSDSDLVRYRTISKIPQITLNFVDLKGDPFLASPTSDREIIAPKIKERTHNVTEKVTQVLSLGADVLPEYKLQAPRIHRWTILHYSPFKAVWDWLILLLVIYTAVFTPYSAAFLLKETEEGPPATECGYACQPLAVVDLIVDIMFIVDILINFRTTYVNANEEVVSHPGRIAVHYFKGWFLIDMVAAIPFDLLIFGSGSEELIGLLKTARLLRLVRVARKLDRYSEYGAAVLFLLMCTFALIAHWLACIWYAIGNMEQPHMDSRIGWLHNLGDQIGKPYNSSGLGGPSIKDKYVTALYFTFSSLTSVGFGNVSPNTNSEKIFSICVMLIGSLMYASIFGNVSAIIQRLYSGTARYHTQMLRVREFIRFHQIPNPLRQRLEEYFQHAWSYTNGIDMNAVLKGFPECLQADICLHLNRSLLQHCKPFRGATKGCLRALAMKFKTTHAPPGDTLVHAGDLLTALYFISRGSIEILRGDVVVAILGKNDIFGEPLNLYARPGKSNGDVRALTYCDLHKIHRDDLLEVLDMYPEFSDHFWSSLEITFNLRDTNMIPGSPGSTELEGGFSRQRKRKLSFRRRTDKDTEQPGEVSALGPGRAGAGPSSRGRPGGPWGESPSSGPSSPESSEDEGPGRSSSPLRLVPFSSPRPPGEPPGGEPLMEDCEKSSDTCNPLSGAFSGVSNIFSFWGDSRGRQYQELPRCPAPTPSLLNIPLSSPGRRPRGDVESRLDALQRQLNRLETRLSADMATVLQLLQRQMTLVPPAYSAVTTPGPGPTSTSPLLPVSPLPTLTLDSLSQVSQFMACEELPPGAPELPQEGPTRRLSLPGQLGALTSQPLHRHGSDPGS

[3] = target: T1, Angiotensin-converting enzyme (Oryctolagus cuniculus, UniProt P12822); experiment: biochemical; format: tissue-based, Lung;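 also: enzymatic inhibition of angiotensin-converting enzyme measured with FAPGG as the substrate; in other assays of this panel Not Active means under 50% inhibition at 10 µM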
T1 sequence (P12822 whole entry): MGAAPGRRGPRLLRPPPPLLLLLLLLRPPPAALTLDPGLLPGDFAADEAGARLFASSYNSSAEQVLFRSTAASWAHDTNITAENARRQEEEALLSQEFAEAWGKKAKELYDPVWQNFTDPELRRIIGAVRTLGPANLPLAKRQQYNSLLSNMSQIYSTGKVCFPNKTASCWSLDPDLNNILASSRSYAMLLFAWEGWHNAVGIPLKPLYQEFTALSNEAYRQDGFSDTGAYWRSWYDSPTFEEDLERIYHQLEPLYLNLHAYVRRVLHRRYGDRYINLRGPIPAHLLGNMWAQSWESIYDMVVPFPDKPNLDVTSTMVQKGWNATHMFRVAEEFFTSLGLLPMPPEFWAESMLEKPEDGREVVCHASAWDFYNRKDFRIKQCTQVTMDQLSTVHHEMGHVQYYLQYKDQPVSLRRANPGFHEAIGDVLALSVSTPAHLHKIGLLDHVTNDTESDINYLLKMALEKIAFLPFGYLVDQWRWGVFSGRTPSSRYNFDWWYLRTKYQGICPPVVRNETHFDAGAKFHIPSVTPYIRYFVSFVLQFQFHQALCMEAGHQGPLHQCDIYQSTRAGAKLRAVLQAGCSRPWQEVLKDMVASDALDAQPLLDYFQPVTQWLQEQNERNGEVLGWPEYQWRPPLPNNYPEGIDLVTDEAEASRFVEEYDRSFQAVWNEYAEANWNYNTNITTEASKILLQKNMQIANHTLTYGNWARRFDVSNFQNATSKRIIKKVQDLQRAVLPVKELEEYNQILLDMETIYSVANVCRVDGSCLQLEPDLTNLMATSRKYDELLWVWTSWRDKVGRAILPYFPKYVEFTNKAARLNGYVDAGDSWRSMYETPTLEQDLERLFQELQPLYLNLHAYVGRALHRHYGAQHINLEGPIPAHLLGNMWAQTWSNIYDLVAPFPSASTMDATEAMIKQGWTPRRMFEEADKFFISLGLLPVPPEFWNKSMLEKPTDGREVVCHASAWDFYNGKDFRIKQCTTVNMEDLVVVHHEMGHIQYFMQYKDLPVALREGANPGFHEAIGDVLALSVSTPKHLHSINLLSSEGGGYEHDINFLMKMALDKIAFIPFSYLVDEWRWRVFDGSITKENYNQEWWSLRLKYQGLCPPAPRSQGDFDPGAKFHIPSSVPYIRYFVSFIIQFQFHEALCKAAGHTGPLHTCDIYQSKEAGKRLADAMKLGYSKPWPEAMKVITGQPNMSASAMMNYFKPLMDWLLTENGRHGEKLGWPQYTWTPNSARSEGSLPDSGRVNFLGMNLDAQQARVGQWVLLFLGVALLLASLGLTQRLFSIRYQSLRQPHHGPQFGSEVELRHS

[4] = DRUGMATRIX: Glutamate, NMDA, Phencyclidine radioligand binding (ligand: [3H] TCP); format: cell membranes, Rattus norvegicus, Wistar, Cerebral cortex, Membrane; conditions: Not Active = under 50% inhibition at 10 µM
[5] = DRUGMATRIX: Glutamate, NMDA, Agonism radioligand binding (ligand: [3H] CGP-39653); format: cell membranes, Rattus norvegicus, Wistar, Cerebral cortex, Membrane; conditions: Not Active = under 50% inhibition at 10 µM
[6] = target: Mu-type opioid receptor (Homo sapiens, UniProt P35372); experiment: DRUGMATRIX: Opiate mu (OP3, MOP) radioligand binding (ligand: [3H] Diprenorphine); format: cell membranes, CHO-K1, Membrane; conditions: cho-k1; Not Active = under 50% inhibition at 10 µM
Sequence of Mu-type opioid receptor (P35372 whole entry): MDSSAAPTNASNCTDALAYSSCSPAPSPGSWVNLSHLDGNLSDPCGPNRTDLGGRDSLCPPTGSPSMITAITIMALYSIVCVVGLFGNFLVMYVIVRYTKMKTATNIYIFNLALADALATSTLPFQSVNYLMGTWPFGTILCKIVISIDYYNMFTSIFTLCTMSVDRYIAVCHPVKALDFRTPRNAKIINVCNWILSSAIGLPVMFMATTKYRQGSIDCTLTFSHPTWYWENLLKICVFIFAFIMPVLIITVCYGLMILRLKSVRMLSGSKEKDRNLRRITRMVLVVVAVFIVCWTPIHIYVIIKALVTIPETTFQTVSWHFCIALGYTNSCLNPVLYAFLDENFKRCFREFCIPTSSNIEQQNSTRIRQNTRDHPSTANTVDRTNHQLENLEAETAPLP

[7] = DRUGMATRIX: Purinergic P2X radioligand binding (ligand: [3H] alpha, beta-Methylene-ATP); format: cell membranes, Oryctolagus cuniculus, New Zealand albino, Urinary bladder, Membrane; conditions: Not Active = under 50% inhibition at 10 µM
[8] = DRUGMATRIX: Interleukin IL-1 radioligand binding (ligand: [125I] interleukin 1beta); format: cell membranes, Membrane; conditions: nih3t3; Not Active = under 50% inhibition at 10 µM
[9] = target: Sodium-dependent dopamine transporter (Homo sapiens, UniProt Q01959); experiment: DRUGMATRIX: Dopamine Transporter radioligand binding (ligand: [125I] RTI-55); format: cell membranes, CHO-K1, Membrane; conditions: cho-k1; Not Active = under 50% inhibition at 10 µM
Sequence of Sodium-dependent dopamine transporter (Q01959 whole entry): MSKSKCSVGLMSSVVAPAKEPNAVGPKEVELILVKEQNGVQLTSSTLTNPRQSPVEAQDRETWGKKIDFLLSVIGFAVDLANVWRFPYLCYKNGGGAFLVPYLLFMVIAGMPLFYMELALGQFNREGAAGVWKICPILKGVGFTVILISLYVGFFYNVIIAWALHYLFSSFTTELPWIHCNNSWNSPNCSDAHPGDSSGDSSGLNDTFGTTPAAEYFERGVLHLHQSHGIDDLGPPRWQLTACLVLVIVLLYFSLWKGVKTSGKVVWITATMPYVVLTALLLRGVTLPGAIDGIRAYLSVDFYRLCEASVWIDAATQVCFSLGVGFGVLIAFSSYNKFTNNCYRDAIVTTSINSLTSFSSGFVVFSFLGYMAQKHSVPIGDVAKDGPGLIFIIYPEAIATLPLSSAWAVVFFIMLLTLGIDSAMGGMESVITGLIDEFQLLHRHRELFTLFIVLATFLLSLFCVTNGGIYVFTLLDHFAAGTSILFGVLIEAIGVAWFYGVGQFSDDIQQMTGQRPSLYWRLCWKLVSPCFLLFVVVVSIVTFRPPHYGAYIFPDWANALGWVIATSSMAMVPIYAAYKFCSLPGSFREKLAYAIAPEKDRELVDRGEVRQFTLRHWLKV

[10] = target: T2, Alpha-1A adrenergic receptor (Rattus norvegicus, UniProt P43140); experiment: DRUGMATRIX: Alpha-1A adrenergic receptor radioligand binding (ligand: prazosin); format: cell membranes, Wistar, Submaxillary gland, Membrane; conditions: Not Active = under 50% inhibition at 10 µM
T2 sequence (P43140 whole entry): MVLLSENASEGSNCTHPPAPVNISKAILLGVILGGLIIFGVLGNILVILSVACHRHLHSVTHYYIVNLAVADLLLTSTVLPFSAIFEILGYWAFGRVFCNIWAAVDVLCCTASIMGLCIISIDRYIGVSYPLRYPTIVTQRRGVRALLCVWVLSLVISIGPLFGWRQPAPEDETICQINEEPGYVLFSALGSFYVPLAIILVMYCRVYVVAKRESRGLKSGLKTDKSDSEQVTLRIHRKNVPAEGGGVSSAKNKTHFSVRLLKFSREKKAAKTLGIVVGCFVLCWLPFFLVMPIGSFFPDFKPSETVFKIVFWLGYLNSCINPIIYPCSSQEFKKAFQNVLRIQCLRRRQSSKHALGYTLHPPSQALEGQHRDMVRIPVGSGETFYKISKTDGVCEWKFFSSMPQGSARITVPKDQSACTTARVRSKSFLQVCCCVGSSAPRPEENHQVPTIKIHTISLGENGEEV

[11] = DRUGMATRIX: beta-Lactamase enzyme inhibition (substrate: Nitrocefin); design: species or system Bacillus cereus; conditions: Not Active = under 50% inhibition at 10 µM
[12] = target: Cytochrome P450 3A4 (Homo sapiens, UniProt P08684); conditions: bti-tn-5b1-4; also: in other assays of this panel Not Active means under 50% inhibition at 10 µM
Sequence of Cytochrome P450 3A4 (P08684 whole entry): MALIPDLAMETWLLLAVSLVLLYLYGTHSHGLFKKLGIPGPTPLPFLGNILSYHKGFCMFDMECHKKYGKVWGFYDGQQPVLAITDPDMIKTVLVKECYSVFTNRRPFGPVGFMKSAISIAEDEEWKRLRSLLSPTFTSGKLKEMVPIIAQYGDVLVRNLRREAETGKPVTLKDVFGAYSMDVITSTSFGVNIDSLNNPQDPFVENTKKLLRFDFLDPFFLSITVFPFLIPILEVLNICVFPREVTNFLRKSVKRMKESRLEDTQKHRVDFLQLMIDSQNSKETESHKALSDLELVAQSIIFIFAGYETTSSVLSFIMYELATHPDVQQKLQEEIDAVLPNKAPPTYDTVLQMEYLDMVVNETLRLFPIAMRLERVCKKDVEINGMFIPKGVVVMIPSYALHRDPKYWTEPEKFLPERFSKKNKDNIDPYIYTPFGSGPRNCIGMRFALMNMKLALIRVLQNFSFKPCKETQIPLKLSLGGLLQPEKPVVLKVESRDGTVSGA

[13] = target: T3, Cysteinyl leukotriene receptor 1 (Homo sapiens, UniProt Q9Y271); format: cell membranes, CHO-K1, Membrane; conditions: cho-k1; also: in other assays of this panel Not Active means under 50% inhibition at 10 µM
T3 sequence (Q9Y271 whole entry): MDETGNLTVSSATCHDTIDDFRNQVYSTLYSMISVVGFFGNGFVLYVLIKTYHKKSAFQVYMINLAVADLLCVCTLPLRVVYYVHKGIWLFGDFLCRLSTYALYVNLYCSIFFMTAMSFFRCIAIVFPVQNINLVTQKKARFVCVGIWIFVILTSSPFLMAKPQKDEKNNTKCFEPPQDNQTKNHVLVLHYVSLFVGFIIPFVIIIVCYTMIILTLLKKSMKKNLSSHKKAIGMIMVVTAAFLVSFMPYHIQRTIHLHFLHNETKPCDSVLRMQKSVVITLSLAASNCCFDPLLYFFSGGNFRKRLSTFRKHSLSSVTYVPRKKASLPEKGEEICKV

CC(=O)[C@@]1(O)CC[C@H]2[C@@H]3C[C@H](C)C4=CC(=O)C=C[C@]4(C)[C@@]3(F)[C@@H](O)C[C@@]21C [FLUOROMETHOLONE]
Not Active: IC50 [1] | Ki [1] | IC50 [2] | Ki [2] | IC50 [3] | IC50 [4] | Ki [4] | IC50 [5] | Ki [5] | IC50 [6] | IC50 [7] | Ki [7] | IC50 [8] | Ki [8] | IC50 [9] | IC50 [10] | IC50 [11] | Ki [11] | IC50 [12] | Ki [12] | IC50 [13]

O=c1[nH]cc(F)c(=O)[nH]1 [FLUOROURACIL]
Not Active: IC50 [1] | Ki [1] | IC50 [2] | Ki [2] | IC50 [3] | IC50 [4] | Ki [4] | IC50 [5] | Ki [5] | IC50 [6] | IC50 [7] | Ki [7] | IC50 [8] | Ki [8] | IC50 [9] | IC50 [10] | IC50 [11] | Ki [11] | IC50 [12] | Ki [12] | IC50 [13]

CC(C)(Oc1ccc(CCNC(=O)c2ccc(Cl)cc2)cc1)C(=O)O [BEZAFIBRATE]
Not Active: IC50 [1] | Ki [1] | IC50 [2] | Ki [2] | IC50 [3] | IC50 [4] | Ki [4] | IC50 [5] | Ki [5] | IC50 [6] | IC50 [7] | Ki [7] | IC50 [8] | Ki [8] | IC50 [9] | IC50 [10] | IC50 [11] | Ki [11] | IC50 [12] | Ki [12] | IC50 [13]

CC[C@H](C)[C@H](N)C1=N[C@H](C(=O)N[C@@H](CC(C)C)C(=O)N[C@H](CCC(=O)O)C(=O)N[C@H](C(=O)N[C@H]2CCCCNC(=O)[C@H](CC(N)=O)NC(=O)[C@@H](CC(=O)O)NC(=O)[C@H](Cc3cnc[nH]3)NC(=O)[C@@H](Cc3ccccc3)NC(=O)[C@H]([C@@H](C)CC)NC(=O)[C@@H](CCCN)NC2=O)[C@@H](C)CC)CS1 [BACITRACIN] ({Ileψ(thiazoline)Cys}-L[dE]IK[dOrn]I[dF]H[dD]N; lactam 4-C)
Not Active: IC50 [1] | Ki [1] | IC50 [2] | Ki [2] | IC50 [3] | IC50 [4] | Ki [4] | IC50 [5] | Ki [5] | IC50 [6] | IC50 [7] | Ki [7] | IC50 [8] | Ki [8] | IC50 [9] | IC50 [10] | IC50 [11] | Ki [11] | IC50 [12] | Ki [12] | IC50 [13]

Nc1nc(=O)[nH]cc1F [FLUCYTOSINE]
Not Active: IC50 [1] | Ki [1] | IC50 [2] | Ki [2] | IC50 [3] | IC50 [4] | Ki [4] | IC50 [5] | Ki [5] | IC50 [6] | IC50 [7] | Ki [7] | IC50 [8] | Ki [8] | IC50 [9] | IC50 [10] | IC50 [11] | Ki [11] | IC50 [12] | Ki [12] | IC50 [13]

CC1(C)S[C@@H]2[C@H](NC(=O)[C@H](NC(=O)N3CCNC3=O)c3ccccc3)C(=O)N2[C@H]1C(=O)O [AZLOCILLIN]
Not Active: IC50 [1] | Ki [1] | IC50 [2] | Ki [2] | IC50 [3] | IC50 [4] | Ki [4] | IC50 [5] | Ki [5] | IC50 [6] | IC50 [7] | Ki [7] | IC50 [8] | Ki [8] | IC50 [9] | IC50 [10] | IC50 [11] | Ki [11] | IC50 [12] | Ki [12] | IC50 [13]

N=C(N)NCCCCNC(=N)N.O=S(=O)(O)O [ARCAINE SULFATE]
Not Active: IC50 [1] | Ki [1] | IC50 [2] | Ki [2] | IC50 [3] | IC50 [4] | Ki [4] | IC50 [5] | Ki [5] | IC50 [6] | IC50 [7] | Ki [7] | IC50 [8] | Ki [8] | IC50 [9] | IC50 [10] | IC50 [11] | Ki [11] | IC50 [12] | Ki [12] | IC50 [13]
